The values that follow come from patent US12312293B2, “Branched tail lipid compounds and compositions for intracellular delivery of therapeutic agents” (ModernaTX, Inc., priority 2019, dated 2025).

Data set [1] in a line: Characteristics of lipid nanoparticles (size, PDI, encapsulation efficiency). Conditions: LNP with DSPC, cholesterol, PEG-1 and the compound; for % EE: encapsulation efficiency; for PDI: polydispersity index. In kind it is physicochemical. The text has this: Lipid nanoparticles (e.g., empty LNPs or loaded LNPs) may be characterized by a variety of methods. For example, microscopy (e.g., transmission electron microscopy or scanning electron microscopy) may be used to examine the morphology and size distribution of a nanoparticle composition. Dynamic light scattering or potentiometry (e.g., potentiometric titrations) may be used to measure zeta potentials. Dynamic light scattering may also be utilized to determine particle sizes. Instruments such as the Zetasizer Nano ZS (Malvern Instruments Ltd, Malvern, Worcestershire, UK) may also be used to measure multiple characteristics of a nanoparticle composition, such as particle size, polydispersity index, and zeta potential.
The efficiency of encapsulation of a therapeutic and/or prophylactic describes the amount of therapeutic and/or prophylactic that is encapsulated or otherwise associated with a lipid nanoparticle (e.g., an empty LNP or a loaded LNP) after preparation, relative to the initial amount provided. The encapsulation efficiency is desirably high (e.g., close to 100%). The encapsulation efficiency may be measured, for example, by comparing the amount of therapeutic and/or prophylactic in a solution containing the lipid nanoparticle (e.g., an empty LNP or a loaded LNP) before and after breaking up the lipid nanoparticle (e.g., an empty LNP or a loaded LNP) with one or more organic solvents or detergents. Fluorescence may be used to measure the amount of free therapeutic and/or prophylactic (e.g., RNA) in a solution. For the lipid nanoparticles (e.g., empty LNPs or loaded LNPs) described herein, the encapsulation efficiency of a therapeutic and/or prophylactic may be at least 50%, for example 50%, 55%, 60%, 65%, 70%, 75%, 80%, 85%, 90%, 91%, 92%, 93%, 94%, 95%, 96%, 97%, 98%, 99%, or 100%. In some embodiments, the encapsulation efficiency may be at least 80%. In certain embodiments, the encapsulation efficiency may be at least 90%. In some embodiments, the encapsulation efficiency of the therapeutic and/or prophylactic agent is between 80% and 100%.
Lipid nanoparticles (e.g., empty LNPs or loaded LNPs) including DSPC as a phospholipid, cholesterol as a structural lipid, PEG-1 as a PEG lipid, and a compound according to Formula (1-1), (2-1), (I-a), (A), (B), (A-1), (A-2), (A-3), (IA), (IB), (B-1), (B-2), (B-3), (A-a), (A-a1), (A-a2), (A-a3), (A-b), (A-b1), (A-b2), (A-b3), (A-c), or (B-c) were prepared. Tables 2a and 2b summarize the characteristics of the formulations.

A short description of data set [2]: Residual lipid levels in the liver of mice after LNP administration. Conditions: calculation assumes a 25 g mouse with a 1.5 g liver. It counts as in vivo.

Consider `CCCCCC(CCCCC)OC(=O)CCCCCCCN(CCCCCCCC(=O)OCCC(CCC)CCC)CCCNc1c(NC)c(=O)c1=O` [Compound 65, 3-Propylhexyl 8-((3-((2-(methylamino)-3,4-dioxocyclobut-1-en-1-yl)amino)propyl)(8-oxo-8-(undecan-6-yloxy)octyl)amino)octanoate], for which, in data set [1], the “Size (nm)” value is recorded as 83.1 nm, the “% EE” value came out at 88.6% and the PDI came to 0.17.

As for `CCCCC(CCCC)CCOC(=O)CCCCCCCN(CCCCCCCC(=O)OCCC(CCC)CCC)CCCNc1c(NC)c(=O)c1=O` [Compound 52, 3-Butylheptyl 8-((3-((2-(methylamino)-3,4-dioxocyclobut-1-en-1-yl)amino)propyl)(8-oxo-8-((3-propylhexyl)oxy)octyl)amino)octanoate], in data set [1], the “Size (nm)” value is reported as 70.5 nm, the “% EE” value was 84.9% and the PDI is reported as 0.16.

For `CCCCC(CCCC)CCOC(=O)CCCCCCCN(CCCCCCCC(=O)OC(CCCC)CCCC)CCCNc1c(NC)c(=O)c1=O` [Compound 62, 3-Butylheptyl 8-((3-((2-(methylamino)-3,4-dioxocyclobut-1-en-1-yl)amino)propyl)(8-(nonan-5-yloxy)-8-oxooctyl)amino)octanoate], in data set [1], the “Size (nm)” value was found to be 91.0 nm, the “% EE” value was found to be 83.0% and the PDI is reported as 0.17.

Take `CCCCCC(CCCCC)CCOC(=O)CCCCCCCN(CCCCCCCC(=O)OCCC(CCC)CCC)CCCNc1c(NC)c(=O)c1=O` [Compound 51, 3-Pentyloctyl 8-((3-((2-(methylamino)-3,4-dioxocyclobut-1-en-1-yl)amino)propyl)(8-oxo-8-((3-propylhexyl)oxy)octyl)amino)octanoate]: in data set [1], the “Size (nm)” value worked out at 58.3 nm, the “% EE” value was 95.9% and the PDI is recorded as 0.12.

`CCCCCCCC(CCCCCCC)OC(=O)CCCCCCCN(CCCCCCCC(=O)OCCC(CCC)CCC)CCCNc1c(NC)c(=O)c1=O` [Compound 63, Pentadecan-8-yl 8-((3-((2-(methylamino)-3,4-dioxocyclobut-1-en-1-yl)amino)propyl)(8-oxo-8-((3-propylhexyl)oxy)octyl)amino)octanoate]: the “Approx. Percent Total Dose of Parent Lipid Remaining at 24 h” value in data set [2] is 9 ± 3%. Further, in data set [1], the “Size (nm)” value is on record as 56.2 nm, the “% EE” value came to 98.1% and the PDI turned out to be 0.15.

In the case of `CCCC(CCC)CCOC(=O)CCCCCCCN(CCCCCCCC(=O)OCCC(CCC)CCC)CCCNc1c(NC)c(=O)c1=O` [Compound 53, Bis(3-propylhexyl) 8,8′-((3-((2-(methylamino)-3,4-dioxocyclobut-1-en-1-yl)amino)propyl)azanediyl)dioctanoate], in data set [1], the “Size (nm)” value is given as 106.7 nm, the “% EE” value is given as 84.2% and the PDI came to 0.28.

With `CCCCCCC(CCCCCC)OC(=O)CCCCCCCN(CCCCCCCC(=O)OCCC(CCCC)CCCC)CCCNc1c(NC)c(=O)c1=O` [Compound 60, 3-Butylheptyl 8-((3-((2-(methylamino)-3,4-dioxocyclobut-1-en-1-yl)amino)propyl)(8-oxo-8-(tridecan-7-yloxy)octyl)amino)octanoate], in data set [1], the “Size (nm)” value is 60.4 nm, the “% EE” value is 98.8% and the PDI was determined as 0.14.

As for `CCCCC(CCCC)CCOC(=O)CCCCCCCN(CCCCCCCC(=O)OCCC(CCCC)CCCC)CCCNc1c(NC)c(=O)c1=O` [Compound 55, Bis(3-butylheptyl) 8,8′-((3-((2-(methylamino)-3,4-dioxocyclobut-1-en-1-yl)amino)propyl)azanediyl)dioctanoate], in data set [1], the “Size (nm)” value was 77.0 nm, the “% EE” value was determined as 88.9% and the PDI is 0.25.

Regarding `CCCCCC(CCCCC)CCOC(=O)CCCCCCCN(CCCCCCCC(=O)OC(CCCCC)CCCCC)CCCNc1c(NC)c(=O)c1=O` [Compound 57, 3-Pentyloctyl 8-((3-((2-(methylamino)-3,4-dioxocyclobut-1-en-1-yl)amino)propyl)(8-oxo-8-(undecan-6-yloxy)octyl)amino)octanoate], in data set [1], the “Size (nm)” value is 69.4 nm, the “% EE” value turned out to be 90.1% and the PDI is recorded as 0.12.

Take `CCCCC(CCCC)OC(=O)CCCCCCCN(CCCCCCCC(=O)OCCC(CCC)CCC)CCCNc1c(NC)c(=O)c1=O` [Compound 66, Nonan-5-yl 8-((3-((2-(methylamino)-3,4-dioxocyclobut-1-en-1-yl)amino)propyl)(8-oxo-8-((3-propylhexyl)oxy)octyl)amino)octanoate]: in data set [1], the “Size (nm)” value is recorded as 145.3 nm, the “% EE” value was determined as 81.7% and the PDI is reported as 0.25.

Turning to `CCCCCC(CCCCC)OC(=O)CCCCCCCN(CCCCCCCC(=O)OCCC(CCCC)CCCC)CCCNc1c(NC)c(=O)c1=O` [Compound 61, 3-Butylheptyl 8-((3-((2-(methylamino)-3,4-dioxocyclobut-1-en-1-yl)amino)propyl)(8-oxo-8-(undecan-6-yloxy)octyl)amino)octanoate], in data set [1], the “Size (nm)” value is 63.5 nm, the “% EE” value was 98.1% and the PDI was 0.09.

For `CCCCCCC(CCCCCC)OC(=O)CCCCCCCN(CCCCCCCC(=O)OCCC(CCC)CCC)CCCNc1c(NC)c(=O)c1=O` [Compound 64, 3-Propylhexyl 8-((3-((2-(methylamino)-3,4-dioxocyclobut-1-en-1-yl)amino)propyl)(8-oxo-8-(tridecan-7-yloxy)octyl)amino)octanoate], in data set [1], the “Size (nm)” value is listed as 73.6 nm, the “% EE” value was found to be 89.2% and the PDI worked out at 0.13.

On to `CCCCCC(CCCCC)CCOC(=O)CCCCCCCN(CCCCCCCC(=O)OC(CCCC)CCCC)CCCNc1c(NC)c(=O)c1=O` [Compound 58, Nonan-5-yl 8-((3-((2-(methylamino)-3,4-dioxocyclobut-1-en-1-yl)amino)propyl)(8-oxo-8-((3-pentyloctyl)oxy)octyl)amino)octanoate], for which, in data set [1], the “Size (nm)” value is given as 63.9 nm, the “% EE” value worked out at 90.1% and the PDI is recorded as 0.12.

On to `CCCCCC(CCCCC)CCOC(=O)CCCCCCCN(CCCCCCCC(=O)OCCC(CCCC)CCCC)CCCNc1c(NC)c(=O)c1=O` [Compound 54, 3-Butylheptyl 8-((3-((2-(methylamino)-3,4-dioxocyclobut-1-en-1-yl)amino)propyl)(8-oxo-8-((3-pentyloctyl)oxy)octyl)amino)octanoate], for which, in data set [1], the “Size (nm)” value worked out at 64.3 nm, the “% EE” value amounted to 98.3% and the PDI was 0.10.
